According to patent publication US20230381082A1, “PHOTOPROTECTIVE COSMETIC COMPOSITIONS COMPRISING XANTHOMMATIN AS AN ANTIOXIDANT AND UV-FILTER STABILIZER” (SEASPIRE, INC., priority 2020, published 2023):
Converted amounts (≈) assume the structure as drawn. “And” between values parts separate entries of the source, which are not always exact repeats. Equal values may be shown once. “Also recorded” adds a separate entry of the source. Read-outs that look alike come from different tables or passages of the source. Blank lines part the entries; values can stand above or below the molecule they belong to.

Assays:
[1] = Oxygen Radical Antioxidant Capacity (ORAC) assay; details: for AUC: single antioxidant, 40 uM; for antioxidant activity/capacity compared to known standards (Trolox, vitamin C): 90 minutes at 37° C.
From the text: The ORAC assay measures the antioxidant capacity of biomolecules based on the oxidation of a fluorescein probe by peroxyl radicals (Fluorescence decreases as antioxidant capacity decreases).
The antioxidant properties of ammonium xanthommatin (referred to herein as “xanthommatin”) in an unsaturated solution were compared to known standard antioxidants. The results of the experiments are provided in FIGS. 1-3, illustrating the relative fluorescence value (RFU) over time (in seconds) for known antioxidants Trolox (a vitamin E analogue) and ascorbic acid compared to xanthommatin. Experiments were performed using 10, 20, and 40 μM Trolox, ascorbic acid, and ammonium xanthommatin (“Xa”) and compared to performance of 1:1 Trolox:Xa (20 μM: 20 μM and 40 μM: 40 μM) and 1:1 ascorbic acid:Xa (20 μM: 20 μM and 40 μM: 40 μM).
For antioxidant stabilizing/boosting experiments, the antioxidizing capacity and performance of ammonium xanthommatin only and ammonium xanthommatin blended with equimolar ascorbic acid (vitamin C) or Trolox (a vitamin E analogue) over 90 minutes at 37° C. were tested using a standard Oxygen Radical Antioxidant Capacity (ORAC) Assay. The ORAC assay measured the antioxidant capacity of biomolecules based on the oxidation of a fluorescein probe by peroxyl radicals (Fluorescence decreases as antioxidant capacity decreases). The ORAC assay is described in detail at https://www.cellbiolabs.com/sites/default/files/STA-345-orac-assay-kit.pdf, the contents of which are incorporated by reference herein. […] FIG. 19 provides half life measurements of ammonium xanthommatin in solution compared to vitamin C in solution when assayed at the same concentration. […] FIGS. 20 and 21, respectively, show the performance of vitamin C and vitamin E is extended when combined with ammonium xanthommatin.

[2] = SPF and critical wavelength of xanthommatin in solution; type: physicochemical
From the text: In certain embodiments, the compositions of the present application provide sun protection. In certain embodiments, the compositions provide an SPF of at least about 15, 30, 60, 100, or other suitable amount of protection. In certain embodiments, the amount of phenoxazone and/or phenoxazine compound, a precursor or derivative thereof, or a salt of any of the foregoing (e.g., xanthommatin, a precursor or derivative thereof, or a salt of any one of the foregoing, such as ammonium xanthommatin) in the composition may be altered or adjusted in order to provide a particular SPF. In certain embodiments, the amount of UV-filtering material (e.g., a UV-absorbing compound or a UV-scattering particle) in the composition may be altered or adjusted in order to provide a particular SPF. […]
SPF was calculated using the derived Mansur equation (Sayre, R. M., et al., A comparison of in vivo and in vitro testing of sunscreening formulas. Photochemistry and Photobiology, 1979. 29(3): p. 559-566) according to Equation 1, SPF=CFΣ290^320EE(λ)I(λ)Abs(λ), where EE (λ) represents the erythemal effect spectrum; I(λ) is solar intensity spectrum; Abs(a) absorbance of UV-filter; CF is the correction factor (=10). […] The calculated SPF values were rounded to the nearest whole number. […]

[3] = UV-filter stabilizing properties: UV absorption of chemical UV filters with xanthommatin, day 1 and day 16; type: physicochemical; details: xanthommatin at about 0.01 wt %
From the text: This boost in stability in the presence of unsaturated solutions of xanthommatin was consistent across all chemical filters tested, including homosalate, octisalate, octocrylene, oxybenzone, and octinoxate. Between 10-100% UV filtering retention was observed over the course of weeks. Solutions including unsaturated solutions of one or more phenoxazone and/or phenoxazine compound, a precursor or derivative thereof, or a salt of any of the foregoing (e.g., xanthommatin, a precursor or derivative thereof, or a salt of any one of the foregoing, such as ammonium xanthommatin) may also boost the stability of UV-filters in the presence of solar simulated light, or solar light.
The UV-filter stabilizing properties of unsaturated solutions of xanthommatin were explored by comparing the behavior of UV-filter stabilizers over time to UV-filter stabilizers in combination with xanthommatin. As shown in FIGS. 4-8, the addition of unsaturated solutions of xanthommatin to solutions including oxybenzone (FIGS. 4A and 4B), avobenzone (FIGS. 5A and 5B), octi and homo-salate (FIGS. 6A and 6B), octinoxate (FIGS. 7A and 7B) and octocrylene (FIGS. 8A and 8B) increased the UV absorption between about 240 and about 310 nm on day 1, relative to the chemical UV filters alone. […]

[4] = UV-boosting properties: UV absorption of chemical UV filters alone and in combination; type: physicochemical; details: for reduction of avobenzone UV-A performance: filter combined with avobenzone
From the text: FIGS. 9-11 show the UV absorption behavior of chemical UV filters octinoxate, avobenzone, and oxybenzone, alone, in combination with avobenzone, and in combination with xanthommatin small molecules in unsaturated solution (0.03 wt %).

[5] = Absorbance of xanthommatin alone and with FDA approved organic UV filters, 280-500 nm; type: physicochemical; details: 0.6 mM in DMSO
Experimental: The performance of ammonium xanthommatin was tested as a broad-spectrum absorber to assess whether the natural optical features of xanthommatin could be used to boost the UV performance of low (<0.2 mM) concentrations of organic UV filters. Xanthommatin's absorbance capabilities were tested alone in solution (FIG. 14) and in combination with FDA approved organic UV filters (FIGS. 15 and 16) over a spectral range of 280-500 nm. We observed a clear relationship between increasing concentrations of xanthommatin and the absorption of UV through visible light (FIG. 14). […] When xanthommatin was combined with the chemical UV filters, a significant increase in both the UVB (300 nm) and UVA (360 nm) range was achieved across all filters tested, where we observed at least a 50% increase in UVA and B performance upon addition with xanthommatin (FIG. 16).

[6] = tested on: BALB/c 3T3 mouse fibroblast cell lines; test: in vitro 3T3 NRU phototoxicity assay; type: cell-based
Experimental: Given the UV filter-boosting features of xanthommatin, we next tested its cytotoxicity with and without exposure to a noncytotoxic dose of UVA light (from 315 to 400 nm and a measuring range between 0-199.9 mW/cm2). In these experiments, cytotoxicity was expressed as a concentration dependent reduction of a neutral red dye uptake within BALB/c 3T3 mouse fibroblast cell lines after treatment both with and without the presence of UVA exposure. […] Instead, the mean photo effect was calculated using Equation 5,
where, the photo effect (PE) at any concentration (C) is defined as the product of the response effect (REC) and the dose effect (DEC) concentrations. MPE values of 0.019, 0.199, and 0.042 were measured for the three independent experiments with xanthommatin. […] In this figure, the grey lines represent data collected in the absence of UVA (−UVA), and the black lines represent data collected with exposure to UVA (+UVA). Data was collected for three independent experiments.
Since the toxicological endpoint of this in vitro 3T3 NRU phototoxicity assay was developed and validated in a joint EU/COLIPA project, this assay is a well-recognized in vitro alternative to the various in vivo tests in use.

[7] = avobenzone combinations, Xa 0.03 wt %

SMILES: Cc1c(C)c2c(c(C)c1O)CCC(C)(C(=O)O)O2 (centres unmarked) [Trolox, reference compound]
AUC [1]: 55

SMILES: CN(C)CCCN1c2ccccc2Sc2ccc(Cl)cc21 [chlorpromazine, reference compound]
EC50 ([6]; Mus musculus, BALB/c3T3, light or radiation study, +UVA, exp. 1, read-out: EC50): 0.221 µg/mL (≈ 0.693 µM)
PIF (photo-irritation-factor = EC50 (−UVA)/EC50(+UVA)) ([6]; exp. 1-3): 37.81 and 37.74 and 40.33

SMILES: O=C1O[C@H]([C@@H](O)CO)C(O)=C1O [AA, ascorbic acid, reference compound]
AUC [1]: 55

More lines, main results first:

critical wavelength [2]: 385 nm
half life in solution compared to vitamin C ([1]; assayed at the same concentration): two times longer than vitamin C
SMILES: NC(CC(=O)c1cccc2oc3cc(=O)c4[nH]c(C(=O)O)cc(=O)c4c-3nc12)C(=O)O (centres unmarked) [xanthommatin, Ammonium xanthommatin]
effect on UV absorption and stability of chemical UV filters [3]: enhances the UV absorption properties of the chemical UV filters and stabilizes the chemical UV filters over time
antioxidant activity/capacity compared to known standards (Trolox, vitamin C) [1]: comparable activity to vitamin c and vitamin e; also recorded: comparable anti-oxidizing capacity to known antioxidant standards
antioxidant activity/capacity compared to known standards (Trolox, vitamin C) ([1]; listed as ammonium xanthommatin): comparable antioxidizing capacity to known antioxidant standards
relative fluorescence value (RFU) over time ([1]; compared to antioxidant alone, 10, 20, 40 μM): maintain a high RFU value for greater lengths of time
extension of the performance of vitamin C when combined with ammonium xanthommatin ([1]; equimolar blend): 23%
extension of the performance of vitamin E when combined with ammonium xanthommatin ([1]; equimolar blend): 9%
AUC [1]: 56
boost of performance of avobenzone ([4]; xanthommatin at 0.03 wt %): up to 109%
enhancement of UVB absorbing power of octinoxate and oxybenzone ([4]; xanthommatin at 0.03 wt %, in some cases): more than 250%
boost of activity of avobenzone in UV-A (360 nm) ([4]; xanthommatin at about 0.03 wt %): about 9%
boost of activity/performance of avobenzone in UV-B (300 nm) ([4]; xanthommatin at about 0.03 wt %, or second filter): ~250%
absorption profile compared to pure organic UV filters [5]: broader profile that spanned the UVB through visible light regions
phototoxicity classification [6]: not phototoxic; also recorded: neither phototoxic nor a photoirritant
EC50 ([6]; −UVA): no EC50-value could be calculated
relative cell viability at the highest test item concentration ([6]; −UVA controls, three independent experiments): 88.5% and 99.3% and 100.6%

UV absorption 310 nm ([4]; octinoxate, Xa 0.03 wt %): 2.53
UV absorption 360 nm ([4]; octinoxate, Xa 0.03 wt %): 0
SMILES: CCCCC(CC)COC(=O)C=Cc1ccc(OC)cc1 (centres unmarked) [octinox control, octinoxate]
reduction of avobenzone UV-A performance [4]: ~56%

UV absorption 290 nm ([4]; oxybenzone, Xa 0.03 wt %): 2
UV absorption 360 nm ([4]; oxybenzone, Xa 0.03 wt %): 0.31
SMILES: COc1ccc(C(=O)c2ccccc2)c(O)c1 [Oxy control, oxybenzone]
reduction of avobenzone UV-A performance [4]: about 46%

UV absorption 300 nm [4, 7]: 0.31
UV absorption 360 nm [4, 7]: 1.49
SMILES: COc1ccc(C(=O)CC(=O)c2ccc(C(C)(C)C)cc2)cc1 [avo control, avobenzone]
